Reference: patent publication US5449673A, “10,11-dihydro-10-(3-substituted-1-oxo-2-propyl, propenyl or propynyl)dibenz[b,f][1,4] oxazepine prostaglandin antagonists” (G. D. Searle & Co., priority 1994, dated 1995)
Structures can show the parent of a compound that is named as a salt. Where two headings read alike, the source gives them in different places.

What was measured:
mice = assay: PBQ Writhing Assay (analgesia in mice); assay type: in vivo, mouse (Charles River male albino mice); settings: for responders at 30 mg/kg: 0.5 h, 30 mg per kg, 30 min before PBQ, fraction out of 9 or 10 mice; for rank order of potency in the Writhing Assay: more potent compounds tested
Description: The Writhing Assay is one of the most widely-used experimental procedures for measuring the analgesic activity of different narcotic and nonnarcotic analgesic agents, and involves the continuous, chemically-induced pain of visceral origin to an animal, such as a mouse or rat. [Gyires et al., Arch. int. Pharmacodyn, 267, 131-140 (1984); C. Vander Wende et al., Fed. Proc., 15, 494 (1956); Koster et al., Fed. Proc., 18, 412 (1959); and Witken et al., J. Pharmacol. exp. Ther., 133, 400-408 (1961).] Chemicals which may be used to induce this pain include phenylbenzoquinone (PBQ) and acetic acid. As a result of the chemical irritation to the animal, a characteristic stretching and writhing of the animal (dorsiflexion of the animal's back, extension of its hindlimbs and the strong contraction of its abdominal musculature) will generally occur. […] Drugs which reduce the number of writhes of the animal appear to restore the normal nociceptive threshold of the animal.
Charles River male albino mice, weighing 20 to 30 grams were used in this assay.
Thirty minutes after subcutaneous or intragastric administration to ten mice of 30 mg per kilogram of body weight of a compound of the present invention ("test compound"), […] per 10 g of body weight of a 0.025% w/v solution of PBQ was injected intraperitoneally into each mouse. Ten mice which were given saline in place of a test compound of the invention were used as a control group.
Five minutes later, each mouse was individually placed into a glass beaker for observation, and the number of writhes occurring during the following tenminute period was counted.
A test compound was considered to have produced analgesia in a mouse if, in accordance with the conditions set forth above, and under the test criteria employed for this assay, after the administration of 30 mg per kilogram of body weight of a compound of the present invention to the mouse, the number of writhes elicited by a mouse injected with PBQ was equal to, or less than, one-half the median number of writhes recorded for the saline-treated control group of mice that day, as described by Taber in "Predictive Value of Analgesic Assays in Mice and Rats," Advances in Biochemical Psychopharmacology, 8, 191 (1974).
The standard initial screening dose of a test compound employed in this assay was […] for both routes of administration. If this initial screening dose of the test compound produced analgesia in seven of ten mice, then the effect of additional doses of the test compound on the writhing response was evaluated, and then the ED50 dose was generally calculated. (The slopes of the dose-response curves for all test compounds analyzed were compared as described by Taltarida and Murray, Manual of Pharmacologic Calculations, Page 11 (Springer Verlag, New York, 1981)).
The results for the particular compounds of the present invention analyzed in this assay, and discussed in the examples identified below which correspond thereto, are presented in Table I hereinbelow under the heading "PBQ WRITHING ASSAY". The fractions indicate the number of mice out of 9 or 10 in which the initial screening dose of a test compound produced analgesia. The numbers which are not fractions represent ED50 doses.

[1] = biological target: T1, prostaglandin E2-induced contractions of segments of guinea pig ileum (Cavia porcellus, UniProt A0A286XHJ6); assay: Prostaglandin (PGE) Antagonism Assay, inhibition of prostaglandin E2-induced contractions of guinea pig ileum segments; set-up: species or system guinea pig (male albino); settings: 37° C., Schild plot, read-out: PGE ANTAGONISM IN GUINEA PIG ILEUM (pA2) (converted)
T1 construct: Segments of ileum about 2 cm long were then cut and mounted in a 10-mL tissue bath; from tissue; host or cells: ileum segments of male albino guinea pigs
T1 sequence (A0A286XHJ6 1-405): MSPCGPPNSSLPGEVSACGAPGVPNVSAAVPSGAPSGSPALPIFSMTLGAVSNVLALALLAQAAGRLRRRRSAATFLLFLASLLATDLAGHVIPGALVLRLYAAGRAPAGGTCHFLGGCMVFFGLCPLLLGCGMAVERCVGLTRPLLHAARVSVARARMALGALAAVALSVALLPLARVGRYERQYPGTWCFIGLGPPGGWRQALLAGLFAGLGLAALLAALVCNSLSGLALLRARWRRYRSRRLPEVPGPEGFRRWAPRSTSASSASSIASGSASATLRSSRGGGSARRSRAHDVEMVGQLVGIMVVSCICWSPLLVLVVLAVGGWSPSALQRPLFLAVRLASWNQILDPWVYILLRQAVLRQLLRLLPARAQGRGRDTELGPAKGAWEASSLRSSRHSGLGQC
Description: In order to determine the effectiveness of several of the compounds of the present invention ("test compounds") as prostaglandin E2 antagonists,a prostaglandin antagonism assay was conducted, as described below, to determine the ability of these compounds to inhibit prostaglandin E2 -induced contractions of segments of guinea pig ileum.
Male albino guinea pigs weighing 200 to 500 grams were sacrificed by cervical dislocation.
The ileums were then quickly removed from the guinea pigs and placed in a modified Tyrode solution, a solution which is known to those of skill in the art, containing one-half of the usual amount of magnesium ions.
Segments of ileum about 2 cm long were then cut and mounted in a 10-mL tissue bath containing the modified Tyrode solution. The solution was maintained at 37° C. and aerated with a gaseous mixture of 95% oxygen and 5% carbon dioxide.
Submaximal contractions of the ileum segments were then generated by injecting prostaglandin E2 into the bath, and detected isotonically. Data for a control prostaglandin E2 dose response curve plotting concentration of prostaglandin E2 versus number of contractions generated was then obtained by experimentally adjusting the dose of the prostaglandin E2 being injected into the tissue bath, in a manner known by those of skill in the art.
Solutions or suspensions containing an initial amount of a test compound in modified Tyrode solution ("test solutions/suspensions") were then separately substituted for the tissue bath. Each test solution/suspension was then kept in constant contact with the ileum tissue, except for brief periods to drain the bath in preparation for rinsing with fresh test solution/suspension. Different doses of prostaglandin E2 were again injected into the test solutions/suspensions.
A second prostaglandin E2 dose response curve was then generated for PGE2 in the presence of a test compound.
A dose ratio of EC50 doses (that dose of a compound or drug which is necessary to elicit a 50% maximal biological response and, thus, which is necessary to elicit a 50% reduction in the contractions of %he guinea pig ileum segments in this assay) was then calculated from the results of each test in a manner known by those of skill in the art. […]
If the initial concentration of a test compound was determined to be "active," then varying concentrations of the test compound were then assayed.
The pA2 value (a statistical constant which is a common measure of expressing the potency of a particular drug as a competitive antagonist) was then calculated for each test compound by schild plot calculations, as described by H. O. Schild, "pA A New , Scale for the Measurement of Drug Antagonism, " Br. J. Pharmacol, 2, 189 (1947), according to the following mathematical formula: […]

[2] = tested on: isolated smooth muscle preparations; settings: cited from earlier work
[3] = tested on: urethane-anesthetized rats; settings: cited from earlier work
[4] = Mus musculus, po, intragastric, mice, read-out: PBQ WRITHING ASSAY, No. Out of 10 (mice in which the initial screening dose produced analgesia), I.G. (converted)
[5] = Mus musculus, sc, subcutaneous, mice, read-out: PBQ WRITHING ASSAY, No. Out of 10 (mice in which the initial screening dose produced analgesia), S.C. (converted)

| Compound | responders at 30 mg/kg (mice; [4]) [%] | responders at 30 mg/kg (mice; [5]) [%] | Kb [1] [nM] | also measured |
| --- | --- | --- | --- | --- |
| CCCCC(C)(C/C=C\C(=O)N1Cc2ccccc2Oc2ccc(Cl)cc21)O[Si](C)(C)C (centres unmarked) [Example 4, 8-chloro-10,11-dihydro-10-[5-methyl-1-oxo-5-[(trimethylsilyl)oxy]-2Z-nonenyl]-dibenz[b,f][1,4]oxazepine] | 50 | 80 | – | – |
| CCCCC(C)(C/C=C/C(=O)N1Cc2ccccc2Oc2ccc(Cl)cc21)O[Si](C)(C)C (centres unmarked) [Example 5, 8-chloro-10,11-dihydro-10-[5-methyl-1-oxo-5-[(trimethylsilyl)oxy]-2E-nonenyl]-dibenz[b,f][1,4]oxazepine] | 30 | 60 | – | – |
| CCCCC(C)(O)C/C=C/C(=O)N1Cc2ccccc2Oc2ccc(Cl)cc21 (centres unmarked) [Example 6, 8-chloro-10,11-dihydro-10-(5-hydroxy-5-methyl-1-oxo-2E-nonenyl)dibenz[b,f][1,4]oxazepine] | 40 | 40 | 166 | – |
| CCCCCC(C)(/C=C/C(=O)N1Cc2ccccc2Oc2ccc(Cl)cc21)O[Si](C)(C)C (centres unmarked) [Example 8, 8-chloro-10,11-dihydro-10-[4-methyl-1-oxo-4-[(trimethylsilyl)oxy]-2E-nonenyl]dibenz-[b,f][1,4]oxazepine] | 60 | 40 | – | – |
| CCCCCC(C)(O)/C=C/C(=O)N1Cc2ccccc2Oc2ccc(Cl)cc21 (centres unmarked) [Example 9, 8-chloro-10,11-dihydro-10-(4-hydroxy-4-methyl-1-oxo-2E-nonenyl)dibenz[b,f][1,4]oxazepine] | 50 | 90 | 617 | – |
| CCCCCC(O)/C=C/C(=O)N1Cc2ccccc2Oc2ccc(Cl)cc21 (centres unmarked) [Example 11] | 20 | 30 | 214 | – |
| CCCCCC(/C=C/C(=O)N1Cc2ccccc2Oc2ccc(Cl)cc21)OC(=O)CN (centres unmarked) [Example 12, glycine, 1-[3-(8-chloro-10,11-dihydrodibenz-[b,f][1,4]oxazepin-10-yl)-3-oxo-1E-propenyl]-hexyl ester, monohydrochloride] | 55.6 | 30 | – | rank order of potency in the Writhing Assay (mice): Example 17 > Example 9 > Example 4 > Example 8 > Example 5 > Example 12 |
| CCCCCC(=O)/C=C/C(=O)N1Cc2ccccc2Oc2ccc(Cl)cc21 [Example 13, 8-chloro-10,11-dihydro-10-(1,4-dioxo-2E-nonenyl)dibenz[b,f][1,4]oxazepin] | 10 | 22.2 | – | – |
| CCCCCC/C=C/C(=O)N1Cc2ccccc2Oc2ccc(Cl)cc21 [Example 14, 8-chloro-10,11-dihydro-10-(1-oxo-2E-nonenyl)dibenz[b,f][1,4]oxazepine] | 10 | 10 | – | – |
| CCCCCC(O)C#CC(=O)N1Cc2ccccc2Oc2ccc(Cl)cc21 (centres unmarked) [Example 15, 8-chloro-10,11-dihydro-10-(4-hydroxy-1-oxo-2-nonynyl)dibenz[b,f][1,4]oxazepine] | 10 | 30 | – | – |
| O=C(CCC(=O)N1Cc2ccccc2Oc2ccc(Cl)cc21)CCc1ccncc1 [Example 17, 8-chloro-10-[1,4-dioxo-6-(4-pyridinyl)hexyl]-10,11-dihydrodibenz[b,f][1,4]-oxazepine, monohydrochloride] | – | – | 102 | ED50 (mice; Mus musculus, po, intragastric, mice, ED50 dose, read-out: PBQ WRITHING ASSAY, ED50, I.G.): 5.4 mg/kg; most potent compound tested in the Writhing Assay (mice; in words): the most potent compound of the invention tested in this assay; rank order of potency in the Writhing Assay (mice): Example 17 > Example 9 > Example 4 > Example 8 > Example 5 > Example 12 |
| O=C(Cc1ccccc1)NNC(=O)N1Cc2ccccc2Oc2ccc(Cl)cc21 [SC-18637] | – | – | – | inhibition of the stimulant actions of prostaglandins [2]: inhibit the stimulant actions of prostaglandins on isolated smooth muscle preparations |
| CC(=O)NNC(=O)N1Cc2ccccc2Oc2ccc(Cl)cc21 [SC-19220] | – | – | – | inhibition of the stimulant actions of prostaglandins [2]: inhibit the stimulant actions of prostaglandins on isolated smooth muscle preparations; bladder capacity [3]: increased the bladder capacity; voiding efficiency of micturition [3]: reduced the voiding efficiency of micturition |
